The text below walks through data of ChEMBL document CHEMBL1130949, “Construction of a family of biphenyl combinatorial libraries: structure-activity studies utilizing libraries of mixtures” (Bioorg Med Chem Lett, 1998).

Molecules are shown by their SMILES. pIC50: −log10 of the molar value.

This test can be described thus: Binding affinity against vitronectin receptor was determined.
For the compound `CC(=O)N[C@@H](CC(=O)O)C(=O)Nc1ccc(-c2ccccc2C(N)=O)cc1`, the pIC50 (usually −log10 of the IC50, conventionally taken in molar units) is 4.02. As for `CC(=O)N[C@@H](CC(=O)O)C(=O)Nc1ccc(-c2ccccc2C(=O)N[C@@H](CCCN=C(N)N)C(=O)O)cc1`, the pIC50 was 4.47. `CC(=O)N[C@@H](CC(=O)O)C(=O)Nc1ccc(-c2ccccc2C(=O)O)cc1`: the negative logarithm of the IC50 (pIC50) was 4.28.

As for `CC(=O)N[C@@H](CC(=O)O)C(=O)Nc1cccc(-c2ccccc2C(=O)O)c1`, the pIC50 was 4.34. As for `CC(=O)N[C@@H](CC(=O)O)C(=O)Nc1ccc(-c2ccc(C(=O)O)cc2)cc1`, the figure is 4.02; as for `CC(=O)N[C@@H](CC(=O)O)C(=O)Nc1ccc(-c2cccc(C(=O)O)c2)cc1`, 4.51. For the compound `COCC(=O)N[C@@H](CC(=O)O)C(=O)Nc1ccc(-c2ccccc2C(=O)O)cc1`, the pIC50 is under 3.30. `CC(=O)N[C@H](CC(=O)O)C(=O)Nc1ccc(-c2ccccc2C(=O)O)cc1`: the pIC50 is under 3.30.

Compound `CC(C)C(=O)N[C@@H](CC(=O)O)C(=O)Nc1ccc(-c2ccccc2C(=O)O)cc1` showed a pIC50 of under 3.30.
